Here are results for one compound from ChEMBL document CHEMBL4433224, “Hybridization of Fluoro-amodiaquine (FAQ) with Pyrimidines: Synthesis and Antimalarial Efficacy of FAQ-Pyrimidines” (ACS Med Chem Lett, 2019).

Data set [1] has as its system Plasmodium berghei. The data set can be described thus: Antimalarial activity against Plasmodium berghei infected in mouse assessed as mean survival time at 33.3 mg/kg, ip dosed once daily on days 0, 1, and 2 days post infection measured on day 28 post infection (reference value: 13.2 days). The format is functional.
For data set [2], the system named is Plasmodium berghei. Description: Antimalarial activity against Plasmodium berghei infected in mouse assessed as suppression in parasitemia at 33.3 mg/kg, ip dosed once daily on days 0, 1, and 2 days post infection measured on day 5 post infection relative to untreated control. It is filed as functional.
The test system of data set [3] is Plasmodium berghei. The data set can be described thus: Antimalarial activity against Plasmodium berghei infected in mouse assessed as mean survival time at 11.1 mg/kg, ip dosed once daily on days 0, 1, and 2 days post infection measured on day 28 post infection (reference value: 13.2 days). It is filed as functional.
In data set [4] the test system is Plasmodium berghei. The data set can be described thus: Antimalarial activity against Plasmodium berghei infected in mouse assessed as suppression in parasitemia at 11.1 mg/kg, ip dosed once daily on days 0, 1, and 2 days post infection measured on day 5 post infection relative to untreated control. The format is functional.
The test system of another data set is CHO. Description: Cytotoxicity in CHO cells assessed as reduction in cell viability. The format is cell-based. Particulars: Cricetulus griseus.
The subject of data set [5] is Plasmodium falciparum. The data set can be described thus: microbe, parasite or virus in culture. Particulars: NF54, 48 h.
Description: Antiplasmodial activity against chloroquine-sensitive Plasmodium falciparum NF54 incubated for 48 hrs by parasite lactate dehydrogenase assay
Data set [6] has as its system Plasmodium falciparum. Description: Potency index, ratio of IC50 for chloroquine to IC50 for test compound for antiplasmodial activity against chloroquine-resistant Plasmodium falciparum Dd2 incubated for 48 hrs by parasite lactate dehydrogenase assay. It is filed as functional.
The test system of data set [7] is Plasmodium falciparum. The data set can be described thus: microbe, parasite or virus in culture. Particulars: Dd2, 48 h.
Description: Antiplasmodial activity against chloroquine-resistant Plasmodium falciparum Dd2 incubated for 48 hrs by parasite lactate dehydrogenase assay
In data set [8] the test system is Plasmodium berghei. The data set can be described thus: Antimalarial activity against Plasmodium berghei infected in mouse assessed as suppression in parasitemia at 11.1 mg/kg, ip dosed once daily on days 0, 1, and 2 days post infection measured on day 7 post infection relative to untreated control. The format is functional.
For data set [9], the system named is Plasmodium berghei. Description: Antimalarial activity against Plasmodium berghei infected in mouse assessed as host survival at 11.1 mg/kg, ip dosed once daily on days 0, 1, and 2 days post infection measured on day 28 post infection relative to untreated control. It is filed as functional, organism-based.
The test system of data set [10] is Plasmodium berghei. Description: Antimalarial activity against Plasmodium berghei infected in mouse assessed as suppression in parasitemia at 33.3 mg/kg, ip dosed once daily on days 0, 1, and 2 days post infection measured on day 7 post infection relative to untreated control. The format is functional.
The nature of data set [11]: in vitro. The following applies: hamster, CHO cells versus Plasmodium falciparum NF54.
Description: Selectivity index, ratio of IC50 for CHO cells to IC50 for antiplasmodial activity against chloroquine-sensitive Plasmodium falciparum NF54
Data set [12] has as its system Plasmodium berghei. The data set can be described thus: Antimalarial activity against Plasmodium berghei infected in mouse assessed as parasitemia cure at 11.1 mg/kg, ip dosed once daily on days 0, 1, and 2 days post infection measured on day 28 post infection. The format is functional, organism-based.
Data set [13] has as its system Plasmodium falciparum. The data set can be described thus: Potency index, ratio of IC50 for artemisinin to IC50 for test compound for antiplasmodial activity against chloroquine-resistant Plasmodium falciparum Dd2 incubated for 48 hrs by parasite lactate dehydrogenase assay. It is filed as functional.
Data set [14] in a line: in vitro. Particulars: hamster, CHO cells versus Plasmodium falciparum Dd2.
Description: Selectivity index, ratio of IC50 for CHO cells to IC50 for antiplasmodial activity against chloroquine-resistant Plasmodium falciparum Dd2
In data set [15] the test system is Plasmodium berghei. Description: Antimalarial activity against Plasmodium berghei infected in mouse assessed as parasitemia cure at 33.3 mg/kg, ip dosed once daily on days 0, 1, and 2 days post infection measured on day 28 post infection. It is filed as functional, organism-based.
In data set [16] the test system is Plasmodium berghei. Description: Antimalarial activity against Plasmodium berghei infected in mouse assessed as host survival at 33.3 mg/kg, ip dosed once daily on days 0, 1, and 2 days post infection measured on day 28 post infection relative to untreated control. It is filed as functional, organism-based.

Molecules are shown by their SMILES. pIC50: −log10 of the molar value. Active and inactive are the calls of the source. No cut-off for these calls is given here.

In general, pIC50 refers to the IC50 on a negative log10 scale, so that one unit is a factor of ten. With `Cc1cc(N2CCCCC2)nc(NCc2cc(Nc3ccnc4cc(Cl)ccc34)ccc2F)n1`, the MST in the data set with Plasmodium berghei [1] and with Plasmodium berghei [3] was 28 days each time. Besides, the Activity in the data set on Plasmodium berghei [2], in the data set with Plasmodium berghei [4], with Plasmodium berghei [8] and in the data set on Plasmodium berghei [10] was 100% in each case. Also, the pIC50 with CHO is 5.50; in the data set on Plasmodium falciparum [5], 7.87; in the data set with Plasmodium falciparum [7] it was 8.33. For the same compound, the “Ratio IC50” value is given as 47.3 in the data set on Plasmodium falciparum [6] and 2.8 in the data set with Plasmodium falciparum [13]. The outcome in the data set on Plasmodium berghei [9], in the data set with Plasmodium berghei [15] and in the data set on Plasmodium berghei [16] was Active. Further, the results for the selectivity ratio in the data set “in vitro [11]” and in “in vitro [14]” were 237 and 680, respectively. In addition, the outcome in the data set with Plasmodium berghei [12] was inactive.
